# Reference: US5980899A, “Identification of peptides that stimulate hepatitis C virus specific cytotoxic T cells” (The United States of America as represented by the …, priority 1992, dated 1999)
# How the values were obtained:
# [1] = tested on: HCV; settings: chronic HCV liver disease; cited from earlier work
# [2] = tested on: T cells; assay: Response to P17 stimulation in a chronically infected chimpanzee; type: cell-based; settings: one chronically infected chimpanzee
# [3] = tested on: 18Neo (BALB/c 3T3 fibroblast, H-2^d) target cells
Compound,patients who respond [1],responders who relapse after treatment is stopped [1],cytotoxicity in response to stimulation [2],toxicity that might affect activity in CTL stimulation or utility in vivo [3]
α-interferon,less than half,approximately 50%,–,–
"CSCC[C@H](N)C(=O)N[C@@H](CO)C(=O)N[C@@H](Cc1ccc(O)cc1)C(=O)N[C@@H](CO)C(=O)N[C@@H](Cc1c[nH]c2ccccc12)C(=O)N[C@H](C(=O)NCC(=O)N[C@@H](C)C(=O)N[C@@H](CC(C)C)C(=O)N[C@H](C(=O)N[C@H](C(=O)N1CCC[C@H]1C(=O)N[C@@H](CS)C(=O)N[C@@H](C)C(=O)N[C@@H](C)C(=O)N[C@@H](CCC(=O)O)C(=O)O)[C@@H](C)O)C(C)C)[C@@H](C)O [P17, MSYSWTGALVTPCAAE]",–,–,not cytotoxicity,did not show any toxicity
